Results taken from patent US20150344466A1 (SUMITOMO CHEMICAL COMPANY, LIMITED, priority 2013, published 2015).

Key:
Format in all cases: in vivo
[1] = system: Blattella germanica; assay: Knockdown spray test on Blattella germanica, 0.1% w/v oil formulation (Test Example 2); details: topical, 0.25 h, active ingredient 0.1% w/v, 1.5 ml sprayed, within 15 minutes, read-out: knockdown rate of the test insects within 15 minutes
Procedure: Ten Blattella germanica (5 males and 5 females) were released in a test container (8.75 cm in diameter, 7.5 cm in height, and the bottom made of 16 mesh metallic wire) with the inner wall on which butter was applied, and the container was placed on the bottom of a test chamber (bottom: 46 cm×46 cm, height: 70 cm). From a height of 60 cm above the upper surface of the container, 1.5 ml of the test drug solution was sprayed using a spray gun (a spraying pressure of 0.42 kg/cm^2). Thirty seconds after spraying, the container was taken out from the test chamber, and after 2 minutes, 5 minutes and 15 minutes, the number of knocked-down insects was counted to obtain a knockdown rate. The knockdown rate was calculated by the following equation.
Knockdown Rate (%)=(Number of Knocked-down Insects/Number of Tested Insects)×100

[2] = system: Culex pipiens pallens; assay: Knockdown spray test on adult Culex pipiens pallens (Test Example 4); details: topical, 0.25 h, active ingredient 0.1% w/v, 0.5 ml sprayed, within 15 minutes, read-out: knockdown rate of the test insects within 15 minutes
Method in brief: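 Knockdown counts were taken 2, 5 and 15 min after spraying and expressed as percent of the 10 adults tested. For the spray, 0.5 ml of solution was applied by spray gun (0.4 kg/cm^2) from 30 cm above a gauze-covered cup in a test chamber; the cup was taken out right after spraying.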

[3] = system: Musca domestica; assay: Filter paper/sucrose bait death rate test on Musca domestica (Test Example 5); details: female imagoes of Musca domestica, 0.7 ml on filter paper, after 24 hours
Procedure: A filter paper having a diameter of 5.5 cm was spread on the bottom of a polyethylene cup having the same diameter and 0.7 ml of the test drug solution was added dropwise onto the filter paper, and 30 mg of sucrose was uniformly placed as bait.
Into the polyethylene cup, 10 female imagoes of Musca domestica were released, and the cup was sealed with a lid. After 24 hours, the life and death of Musca domestica was examined, and the death rate was calculated. The death rate was calculated by the following equation.
Death rate (%)=(Number of dead insects/Number of tested insects)×100

SMILES	pest or weed control at 0.1 % strength [1] [%]	pest or weed control at 0.1 % strength [2] [%]	pest or weed control at 500 ppm [3] [%]
O=C(NCC1CCOC1)c1cc(COCc2cccc(Cl)c2)on1 (stereo not shown) [(68)]	≥ 80	≥ 80	≥ 90
O=C(NCC1CCOC1)c1cc(COCc2ccc(F)c(F)c2F)on1 (stereo not shown) [(270), N-(tetrahydrofuran-3-ylmethyl)-5-(2,3,4-trifluorobenzyloxymethyl)isoxazole-3-carboxamide]	≥ 80	≥ 80	≥ 90
O=C(NCC1CCOC1)c1cc(COCc2cccc(F)c2F)on1 (stereo not shown) [(274), N-(tetrahydrofuran-3-ylmethyl)-5-(2,3-difluorobenzyloxymethyl)isoxazole-3-carboxamide]	≥ 80	≥ 80	≥ 90
O=C(NCC1CCOC1)c1cc(Cc2ccc(Cl)cc2)on1 (stereo not shown) [(322), N-(tetrahydrofuran-3-ylmethyl)-5-(4-chlorobenzyl)isoxazole-3-carboxamide]	≥ 80	≥ 80	≥ 90
O=C(NCC1CCOC1)c1cc(Cc2ccsc2)on1 (stereo not shown) [(309), N-(tetrahydrofuran-3-ylmethyl)-5-(3-thienylmethyl)isoxazole-3-carboxamide]	≥ 80	≥ 80	≥ 90
COc1ccc(Cc2cc(C(=O)NCC3CCOC3)no2)cc1 (stereo not shown) [(314), N-(tetrahydrofuran-3-ylmethyl)-5-(4-methoxybenzyl)isoxazole-3-carboxamide]	≥ 80	≥ 80	≥ 90
O=C(NCC1CCOC1)c1cc(Cc2ccc(F)cc2)on1 (stereo not shown) [(319), N-(tetrahydrofuran-3-ylmethyl)-5-(4-fluorobenzyl)isoxazole-3-carboxamide]	≥ 80	≥ 80	≥ 90
O=C(NCC1CCOC1)c1cc(COCc2ccccc2Cl)on1 (stereo not shown) [(66), N-(tetrahydrofuran-3-ylmethyl)-5-(2-chlorobenzyloxymethyl)isoxazole-3-carboxamide]	≥ 80	≥ 80	≥ 90
O=C(NCC1CCOC1)c1cc(Cc2cc(F)cc(F)c2)on1 (stereo not shown) [(305), N-(tetrahydrofuran-3-ylmethyl)-5-(3,5-difluorobenzyl)isoxazole-3-carboxamide]	≥ 80	≥ 80	≥ 90
O=C(NCC1CCOC1)c1cc(COCc2ccc(F)cc2F)on1 (stereo not shown) [(278), N-(tetrahydrofuran-3-ylmethyl)-5-(2,4-difluorobenzyloxymethyl)isoxazole-3-carboxamide]	≥ 80	≥ 80	≥ 90
O=C(NCC1CCOC1)c1cc(COCc2cc(F)cc(F)c2)on1 (stereo not shown) [(266), 14-(tetrahydrofuran-3-ylmethyl)-5-(3,5-difluorobenzyloxymethyl)isoxazole-3-carboxamide]	≥ 80	≥ 80	≥ 90
O=C(NCC1CCOCC1)c1cc(COc2cccc(F)c2)on1 [(195), N-(tetrahydropyran-4-ylmethyl)-5-(3-fluorophenoxymethyl)isoxazole-3-carboxamide]	≥ 80	≥ 80	≥ 90
Cc1c(C(=O)NCC2CCOC2)noc1COCc1ccccc1F (stereo not shown) [(286), N-(tetrahydrofuran-3-ylmethyl)-5-(2-fluorobenzyloxymethyl)-4-methylisoxazole-3-carboxamide]	≥ 80	≥ 80	≥ 90
O=C(NCC1CCOC1)c1cc(COCc2cccc(COCc3ccccc3)c2)on1 (stereo not shown) [(121), N-(tetrahydrofuran-3-ylmethyl)-5-(3-benzyloxymethylbenzyloxymethyl)isoxazole-3-carboxamide]	≥ 80	≥ 80	≥ 90
CC1(C)CC(NC(=O)c2cc(COCc3ccccc3)on2)CCO1 (stereo not shown) [(335), N-(2,2-dimethyltetrahydropyran-4-yl)-5-benzyloxymethylisoxazole-3-carboxamide]		≥ 80	≥ 90
CC1(CNC(=O)c2cc(COCc3ccc4ccccc4c3)on2)COC1 [(333), N-(3-methyloxetan-3-ylmethyl)-5-(2-naphthylmethoxymethyl)isoxazole-3-carboxamide]		≥ 80	≥ 90

SMILES	pest or weed control at 0.1 % strength [1] [%]	pest or weed control at 0.1 % strength [2] [%]	pest or weed control at 500 ppm [3] [%]
Cc1cc(C)cc(COCc2cc(C(=O)NCC3CCOC3)no2)c1 (stereo not shown) [(271), N-(tetrahydrofuran-3-ylmethyl)-5-(3,5-dimethylbenzyloxymethyl)isoxazole-3-carboxamide]		≥ 80	≥ 90
O=C(NCC1CCOC1)c1cc(COCc2c(F)cccc2F)on1 (stereo not shown) [(275), N-(tetrahydrofuran-3-ylmethyl)-5-(2,6-difluorobenzyloxymethyl)isoxazole-3-carboxamide]		≥ 80	≥ 90
O=C(NCC1CCOC1)c1cc(Cc2cccs2)on1 (stereo not shown) [(308), N-(tetrahydrofuran-3-ylmethyl)-5-(2-thienylmethyl)isoxazole-3-carboxamide]		≥ 80	≥ 90
O=C(NCC1CCOC1)c1cc(COCc2ccc(F)c(F)c2)on1 (stereo not shown) [(263), N-(tetrahydrofuran-3-ylmethyl)-5-(3,4-difluorobenzyloxymethyl)isoxazole-3-carboxamide]	≥ 80	≥ 80	
CC(O)c1c(C(=O)NCC2CCOC2)noc1COCc1ccccc1 (stereo not shown) [(175), N-(tetrahydrofuran-3-ylmethyl)-[5-benzyloxymethyl-4-(1-hydroxyethyl)]isoxazole-3-carboxamide]	≥ 80	≥ 80	
COc1cccc(COCc2cc(C(=O)NCC3CCOCC3)no2)c1 [(85), N-(tetrahydropyran-4-ylmethyl)-5-(3-methoxybenzyloxymethyl) isoxazole-3-carboxamide]	≥ 80	≥ 80	
O=C(NCC1CCOC1)c1cc(COc2cccc(Cl)c2)on1 (stereo not shown) [(178), N-(tetrahydrofuran-3-ylmethyl)-5-(3-chlorophenoxymethyl)isoxazole-3-carboxamide]	≥ 80	≥ 80	
O=C(NCC1CCOC1)c1cc(COCc2cccc(SC(F)(F)F)c2)on1 (stereo not shown) [(80), N-(tetrahydrofuran-3-ylmethyl)-5-(3-trifluoromethylthiobenzyloxymethyl)isoxazole-3-carboxamide]	≥ 80	≥ 80	
O=C(NCC1CCOCC1)c1cc(COCc2ccc(Cl)s2)on1 [(110), N-(tetrahydropyran-4-ylmethyl)-5-(2-chlorothiophen-5-ylmethoxymethyl)isoxazole-3-carboxamide]	≥ 80	≥ 80	
O=C(NCC1CCOCC1)c1cc(COc2ccccc2Cl)on1 [(177), N-(tetrahydropyran-4-ylmethyl)-5-(2-chlorophenoxymethyl)isoxazole-3-carboxamide]	≥ 80	≥ 80	
O=C(NCC1CCOC1)c1cc(COc2ccc3c(c2)CCCC3)on1 (stereo not shown) [(239), N-(tetrahydrofuran-3-ylmethyl)-5-(5,6,7,8-tetrahydronaphthalen-2-yl)oxymethylisoxazole-3-carboxamide]	≥ 80	≥ 80	
O=C(NCC1CCOC1)c1cc(COCc2ccc(F)c(Cl)c2)on1 (stereo not shown) [(261), N-(tetrahydrofuran-3-ylmethyl)-5-(3-chloro-4-fluorobenzyloxymethyl)isoxazole-3-carboxamide]	≥ 80	≥ 80	
Cc1c(C(=O)NCC2CCOC2)noc1CCCc1ccccc1 (stereo not shown) [(221), N-(tetrahydrofuran-3-ylmethyl)-4-methyl-5-(3-phenylpropyl)isoxazole-3-carboxamide]	≥ 80	≥ 80	
O=C(NCC1CCOC1)c1cc(CCCc2ccc3ccccc3c2)on1 (stereo not shown) [(228), N-(tetrahydrofuran-3-ylmethyl)-5-[3-(2-naphthyl)propyl]isoxazole-3-carboxamide]	≥ 80	≥ 80	
O=C(NCC1CCOC1)c1cc(COCc2cccc(F)c2)on1 (stereo not shown) [(74)]	≥ 80	≥ 80	
